Assay results as given in the supplement of paper PMC11451515.

Columns and labels:
Details in all cases: 48 h
NOMO1 [1] = test: cell viability relative to DMSO control; higher = less cytotoxic
Procedure, shortened: (§1)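 Cells were incubated for 48 h at 37°C before CellTiter-Glo One luminescence was read. The cells were NOMO1 or SEM (500 cells/well) or P12-Ichikawa (1000 cells/well) leukemia cells, adapted for at least four passages in each medium and seeded in 1536-well plates (5 μl). Dosing used library compounds in DMSO applied by pin over 11 threefold points, 47 μM to 0.79 nM. Viability is the per-plate percentage of DMSO wells, with cell-free wells as background.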

P12-Ichikawa [2] = test: as above
Procedure, shortened: as §1

SEM cells [3] = test: as above
Procedure, shortened: as §1

NOMO1 [4] = test: AUC of viability dose-response curve (% viability x log10 dose units); higher = less sensitive
Procedure, shortened: (§2)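 Area under the curve was integrated by trapezoidal rule from a log-logistic fit of normalised viability, with curves exceeding full viability scaled and quality-control failures removed. The fit had four parameters over log10 doses. Viability came from CellTiter-Glo One luminescence, normalised per plate to DMSO and cell-free wells, after leukemia cells adapted to each medium (500 or 1000 cells/well, 1536-well plates) were exposed to library compounds in DMSO for 48 h at 37°C. The 11 threefold doses ran from 47 μM to 0.79 nM.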

SEM cells [5] = test: as above
Procedure, shortened: as §2

P12-Ichikawa [6] = test: as above
Procedure, shortened: as §2

COc1ccc([C@@H]2CC(=O)c3c(O)cc(O[C@@H]4O[C@H](CO[C@@H]5O[C@@H](C)[C@H](O)[C@@H](O)[C@H]5O)[C@@H](O)[C@H](O)[C@H]4O)cc3O2)cc1O
cell viability [%]
Details | NOMO1 [1] | P12-Ichikawa [2] | SEM cells [3]
HPLM + 10% dialyzed FBS, 0.000781 µM | 106 | 97.9 | 99.2
HPLM + 10% dialyzed FBS, 0.00234 µM | 104 | 99 | 101
HPLM + 10% dialyzed FBS, 0.00702 µM | 121 | 116 | 93.9
HPLM + 10% dialyzed FBS, 0.0211 µM | 111 | 118 | 93.2
HPLM + 10% dialyzed FBS, 0.0632 µM | 115 | 113 | 113
HPLM + 10% dialyzed FBS, 0.19 µM | 97.7 | 116 | 48
HPLM + 10% dialyzed FBS, 0.569 µM | 112 | 107 | 110
HPLM + 10% dialyzed FBS, 1.71 µM | 123 | 116 | 116
HPLM + 10% dialyzed FBS, 5.12 µM | 117 | 114 | 125
HPLM + 10% dialyzed FBS, 15.4 µM | 109 | 111 | 108
HPLM + 10% dialyzed FBS, 46.1 µM | 117 | 116 | 123
RPMI 5 mM glucose + 10% FBS, 0.000781 µM | 102 | 96.2 | 105
RPMI 5 mM glucose + 10% FBS, 0.00234 µM | 100 | 101 | 86.6
RPMI 5 mM glucose + 10% FBS, 0.00702 µM | 121 | 110 | 98.4
RPMI 5 mM glucose + 10% FBS, 0.0211 µM | 117 | 113 | 93.4
RPMI 5 mM glucose + 10% FBS, 0.0632 µM | 105 | 107 | 112
RPMI 5 mM glucose + 10% FBS, 0.19 µM | 105 | 114 | 58.5
RPMI 5 mM glucose + 10% FBS, 0.569 µM | 110 | 111 | 107
RPMI 5 mM glucose + 10% FBS, 1.71 µM | 102 | 106 | 91.3
RPMI 5 mM glucose + 10% FBS, 5.12 µM | 108 | 107 | 107
RPMI 5 mM glucose + 10% FBS, 15.4 µM | 124 | 116 | 113
RPMI 5 mM glucose + 10% FBS, 46.1 µM | 120 | 109 | 120
RPMI 5 mM glucose + 10% dialyzed FBS, 0.000781 µM | 94.3 | 104 | 112
RPMI 5 mM glucose + 10% dialyzed FBS, 0.00234 µM | 101 | 111 | 107
RPMI 5 mM glucose + 10% dialyzed FBS, 0.00702 µM | 115 | 109 | 106
RPMI 5 mM glucose + 10% dialyzed FBS, 0.0211 µM | 122 | 108 | 114
RPMI 5 mM glucose + 10% dialyzed FBS, 0.0632 µM | 124 | 114 | 110
RPMI 5 mM glucose + 10% dialyzed FBS, 0.19 µM | 107 | 111 | 54.7
RPMI 5 mM glucose + 10% dialyzed FBS, 0.569 µM | 123 | 113 | 127
RPMI 5 mM glucose + 10% dialyzed FBS, 1.71 µM | 116 | 111 | 114
RPMI 5 mM glucose + 10% dialyzed FBS, 5.12 µM | 114 | 108 | 132
RPMI 5 mM glucose + 10% dialyzed FBS, 15.4 µM | 114 | 115 | 137
RPMI 5 mM glucose + 10% dialyzed FBS, 46.1 µM | 104 | 109 | 119

NC/1=N/C(=O)N(/C=C1F)[C@H]2CS[C@H](CO)O2
cell viability [%]
Details | HPLM + 10% dialyzed FBS | RPMI 5 mM glucose + 10% FBS | RPMI 5 mM glucose + 10% dialyzed FBS
NOMO1 [1], 0.000781 µM | – | 108 | –
NOMO1 [1], 0.00234 µM | – | 121 | –
NOMO1 [1], 0.00702 µM | – | 121 | –
NOMO1 [1], 0.0211 µM | – | 127 | –
NOMO1 [1], 0.0632 µM | – | 133 | –
NOMO1 [1], 0.19 µM | – | 157 | –
NOMO1 [1], 0.569 µM | – | 141 | –
NOMO1 [1], 1.71 µM | – | 139 | –
NOMO1 [1], 5.12 µM | – | 131 | –
NOMO1 [1], 15.4 µM | – | 151 | –
NOMO1 [1], 46.1 µM | – | 141 | –
SEM cells [3], 0.000781 µM | 83.9 | – | 101
SEM cells [3], 0.00234 µM | 107 | – | 118
SEM cells [3], 0.00702 µM | 107 | – | 115
SEM cells [3], 0.0211 µM | 115 | – | 152
SEM cells [3], 0.0632 µM | 124 | – | 126
SEM cells [3], 0.19 µM | 116 | – | 121
SEM cells [3], 0.569 µM | 123 | – | 144
SEM cells [3], 1.71 µM | 126 | – | 131
SEM cells [3], 5.12 µM | 143 | – | 137
SEM cells [3], 15.4 µM | 142 | – | 144
SEM cells [3], 46.1 µM | 148 | – | 153

AUC of viability dose-response curve
Details | HPLM + 10% dialyzed FBS | RPMI 5 mM glucose + 10% FBS | RPMI 5 mM glucose + 10% dialyzed FBS
NOMO1 [4] | 472 | 449 | 462
SEM cells [5] | 392 | 442 | 418

CN1\N=C(N)/C2=C[N]([C@@H]3O[C@H](CO[P](O)(O)=O)[C@@H](O)[C@H]3O)C4=C2C1=NC=N4
cell viability [%]
Details | NOMO1 [1] | P12-Ichikawa [2] | SEM cells [3]
HPLM + 10% dialyzed FBS, 0.000781 µM | 108 | 112 | 77.9
HPLM + 10% dialyzed FBS, 0.00234 µM | 111 | 122 | 79.8
HPLM + 10% dialyzed FBS, 0.00702 µM | 124 | 110 | 42.7
HPLM + 10% dialyzed FBS, 0.0211 µM | 111 | 109 | 45.6
HPLM + 10% dialyzed FBS, 0.0632 µM | 104 | 111 | 38
HPLM + 10% dialyzed FBS, 0.19 µM | 88.6 | 96.1 | 25.8
HPLM + 10% dialyzed FBS, 0.569 µM | 74.6 | 77.9 | 13.2
HPLM + 10% dialyzed FBS, 1.71 µM | 67.7 | 53 | 8.14
HPLM + 10% dialyzed FBS, 5.12 µM | 59.5 | 54 | 4.15
HPLM + 10% dialyzed FBS, 15.4 µM | 30.1 | 43.2 | 2.69
HPLM + 10% dialyzed FBS, 46.1 µM | 16.2 | 37.9 | 2.9
RPMI 5 mM glucose + 10% FBS, 0.000781 µM | 109 | 114 | 107
RPMI 5 mM glucose + 10% FBS, 0.00234 µM | 107 | 110 | 109
RPMI 5 mM glucose + 10% FBS, 0.00702 µM | 112 | 105 | 63.8
RPMI 5 mM glucose + 10% FBS, 0.0211 µM | 99.9 | 95.1 | 65.2
RPMI 5 mM glucose + 10% FBS, 0.0632 µM | 99.2 | 93.9 | 50.3
RPMI 5 mM glucose + 10% FBS, 0.19 µM | 89.6 | 75.5 | 35.3
RPMI 5 mM glucose + 10% FBS, 0.569 µM | 93.7 | 72 | 16.7
RPMI 5 mM glucose + 10% FBS, 1.71 µM | 77.3 | 60.6 | 7.7
RPMI 5 mM glucose + 10% FBS, 5.12 µM | 84.1 | 52.7 | 6.79
RPMI 5 mM glucose + 10% FBS, 15.4 µM | 52.1 | 44.7 | 3.71
RPMI 5 mM glucose + 10% FBS, 46.1 µM | 50 | 41.4 | 3.23
RPMI 5 mM glucose + 10% dialyzed FBS, 0.000781 µM | 98.8 | 119 | 88.7
RPMI 5 mM glucose + 10% dialyzed FBS, 0.00234 µM | 114 | 114 | 76
RPMI 5 mM glucose + 10% dialyzed FBS, 0.00702 µM | 104 | 108 | 40
RPMI 5 mM glucose + 10% dialyzed FBS, 0.0211 µM | 105 | 113 | 38.9
RPMI 5 mM glucose + 10% dialyzed FBS, 0.0632 µM | 94.7 | 101 | 21.1
RPMI 5 mM glucose + 10% dialyzed FBS, 0.19 µM | 82.3 | 89.4 | 13.4
RPMI 5 mM glucose + 10% dialyzed FBS, 0.569 µM | 72.2 | 72.3 | 8.31
RPMI 5 mM glucose + 10% dialyzed FBS, 1.71 µM | 61.5 | 60.4 | 6.58
RPMI 5 mM glucose + 10% dialyzed FBS, 5.12 µM | 52.6 | 58.3 | 4.28
RPMI 5 mM glucose + 10% dialyzed FBS, 15.4 µM | 38 | 51 | 3.22
RPMI 5 mM glucose + 10% dialyzed FBS, 46.1 µM | 30.6 | 41.4 | 2.94

AUC of viability dose-response curve
Details | HPLM + 10% dialyzed FBS | RPMI 5 mM glucose + 10% FBS | RPMI 5 mM glucose + 10% dialyzed FBS
NOMO1 [4] | 341 | 393 | 347
P12-Ichikawa [6] | 353 | 329 | 346

CC(=O)OCCN1C(=O)c2c(C)nc3ccc([S+](=O)([O-])N4CCOCC4)cc3c2C1=O
SEM cells [3], RPMI 5 mM glucose + 10% dialyzed FBS
Details | cell viability [%]
0.000781 µM | 112
0.00234 µM | 114
0.00702 µM | 138
0.0211 µM | 131
0.0632 µM | 129
0.19 µM | 148
0.569 µM | 156
1.71 µM | 140
5.12 µM | 152
15.4 µM | 120
46.1 µM | 142

AUC of viability dose-response curve
Details | HPLM + 10% dialyzed FBS | RPMI 5 mM glucose + 10% FBS | RPMI 5 mM glucose + 10% dialyzed FBS
NOMO1 [4] | 337 | 299 | 329
SEM cells [5] | 471 | 445 | 457
